Test results published in US11524956B2, “Alkyne substituted quinazoline compound and methods of use” (Newgen Therapeutics, Inc., priority 2011, dated 2022).
Entries after “also recorded” stand apart in the source; their conditions may differ.

How the values were obtained:
[1] = tested on: NCI-N87 xenograft; assay: In vivo efficacy in NCI-N87 xenograft mouse model; conditions: 80 mg/kg p.o. bid
Protocol: NCI-N87 cell line was purchased from ATCC (American Type Culture Collection) and was cultured in RPMI1640+10% FBS+1% P/S antibiotics.
Male Balb/c nude mice, 6-8 week, 18±2 g (supplier: Shanghai SLAC Laboratory Animal Co. Ltd.) were used for the experiment. The purchased mice were adapted to the environment for 7 days before use, and were housed at 22-25° C. with humidity 40-70%, and light cycle with fluorescent light for 12-hour light (8:00-20:00) 12-hour dark. The mice have free access to food and water.
The cancer cells (NCI-N87) were implanted subcutaneous into the nude mice (right flank) with 5.0×10^6 cells in 0.1 ml PBS (50 mice). When the tumor size reaches a volume of 200 (150-200) mm^3, the tumor-bearing nude mice were randomly assigned into groups (10 mice/group), one group was served as vehicle, one group was administrated with Lapatinib ditosylate monohydrate (80 mg/kg, free base of Lapatinib, not salt, p.o. […]). The other two groups were administrated with NT113 (also referred to as KID 113) ((15 and 30 mg/kg, p.o.q.d, respectively). The administration period lasted for 4 weeks.
The mice were monitored twice daily for appearance and behavior, and for signs of morbidity and/or mortality. The tumor volume was measured twice a week, and the body weight was measured immediately before measuring the tumor volume throughout the whole study.
At end of the experiment (compound administration for four weeks), all the tumor-bearing mice were sacrificed by cervical dislocation under deep anesthesia. The tumor mass was resected, and weighed.
Tumor sizes were measured twice weekly in two dimensions using a caliper, and the volume was expressed in mm^3 using the formula: V=½×a×b^2 where a and b are the long and short diameters of the tumor, respectively. The tumor mass was weighed at the end of the experiment after harvested.
V=½×a×b^2 (a, h is maximum and minimum diameters respectively).
RTV (Relative Tumor Volume)=Vt/Vo • Vo is the tumor volume when the test article is initial administrated • Vt is the tumor volume of every measurement day after test article administration
T/C (%)=TRTV/CRTV×100% • TRTV: RTV of test article-treatment group; CRTV: RTV of control group Inhibition rate (%)=(average tumor volume of control group average cancer volume of test article treatment group)/average tumor volume of control group×100%
The tumor-bearing mice were treated for 4 weeks with different doses of KU (15 mg/kg, 30 mg/kg, […]), qd) and Lapatinib KUA-1, 80 mg/kg, p.o., bid, 7 days/week. At the day-7 after treatment, the RTV TIC KU113 (15 mg/kg, 30 mg/kg) groups were <30%, and the tumor growth inhibition was >70%. but the RTV TIC was 31% and tumor growth inhibition rat was 69% in the lapatinib group. The same result was observed as well when it comes to the tumor weight. On day 28 after treatment, all the tumor-bearing mice were sacrificed, and all the tumor masses were harvested to weigh.

[2] = tested on: BT474 cells; assay: Cell proliferation inhibition assay for BT474 (CCK-8); format: cell-based; conditions: Homo sapiens, BT-474; 72h
Protocol: Human breast cancer BT474 cells was cultured in low glucose DMEM (Life Technologies 12320-032) containing 10% fetal bovine serum (FBS) at 37° C. in a humidified 10% CO2, 90% air incubator. Cells were harvested using trypsin EDTA, counted using a haemocytometer, and plated 10000 cell/well in a 96-well clear tissue culture plate. The cells were incubated for 24 h at 37° C. to allow adherence. A serials of concentrations of each compound (ranging from 30 um to 0.16 nM, 5-fold dilution) in 96-well plate, and incubated for 72h. Each concentration was tested in triplicate wells. During the cell proliferation assay, BT474 cells were cultured in low-glucose DMEM containing 5% FBS, 50 ug/ml gentamicin, and 0.3% v/v DMSO. The culture medium was removed via aspiration, and the cell viability was detected by using CCK-8 cell proliferation kit. The IC50 value measured for each compound in Examples 1 to 7 is <100 nM.

[3] = target: ErbB2 kinase protein (Homo sapiens (Human), UniProt P04626); assay: Kinase assay for ErbB2; format: biochemical; conditions: read-out: Kinase inhibition IC50 (nM) ErbB2
Sequence of ErbB2 kinase protein (P04626 23-1255): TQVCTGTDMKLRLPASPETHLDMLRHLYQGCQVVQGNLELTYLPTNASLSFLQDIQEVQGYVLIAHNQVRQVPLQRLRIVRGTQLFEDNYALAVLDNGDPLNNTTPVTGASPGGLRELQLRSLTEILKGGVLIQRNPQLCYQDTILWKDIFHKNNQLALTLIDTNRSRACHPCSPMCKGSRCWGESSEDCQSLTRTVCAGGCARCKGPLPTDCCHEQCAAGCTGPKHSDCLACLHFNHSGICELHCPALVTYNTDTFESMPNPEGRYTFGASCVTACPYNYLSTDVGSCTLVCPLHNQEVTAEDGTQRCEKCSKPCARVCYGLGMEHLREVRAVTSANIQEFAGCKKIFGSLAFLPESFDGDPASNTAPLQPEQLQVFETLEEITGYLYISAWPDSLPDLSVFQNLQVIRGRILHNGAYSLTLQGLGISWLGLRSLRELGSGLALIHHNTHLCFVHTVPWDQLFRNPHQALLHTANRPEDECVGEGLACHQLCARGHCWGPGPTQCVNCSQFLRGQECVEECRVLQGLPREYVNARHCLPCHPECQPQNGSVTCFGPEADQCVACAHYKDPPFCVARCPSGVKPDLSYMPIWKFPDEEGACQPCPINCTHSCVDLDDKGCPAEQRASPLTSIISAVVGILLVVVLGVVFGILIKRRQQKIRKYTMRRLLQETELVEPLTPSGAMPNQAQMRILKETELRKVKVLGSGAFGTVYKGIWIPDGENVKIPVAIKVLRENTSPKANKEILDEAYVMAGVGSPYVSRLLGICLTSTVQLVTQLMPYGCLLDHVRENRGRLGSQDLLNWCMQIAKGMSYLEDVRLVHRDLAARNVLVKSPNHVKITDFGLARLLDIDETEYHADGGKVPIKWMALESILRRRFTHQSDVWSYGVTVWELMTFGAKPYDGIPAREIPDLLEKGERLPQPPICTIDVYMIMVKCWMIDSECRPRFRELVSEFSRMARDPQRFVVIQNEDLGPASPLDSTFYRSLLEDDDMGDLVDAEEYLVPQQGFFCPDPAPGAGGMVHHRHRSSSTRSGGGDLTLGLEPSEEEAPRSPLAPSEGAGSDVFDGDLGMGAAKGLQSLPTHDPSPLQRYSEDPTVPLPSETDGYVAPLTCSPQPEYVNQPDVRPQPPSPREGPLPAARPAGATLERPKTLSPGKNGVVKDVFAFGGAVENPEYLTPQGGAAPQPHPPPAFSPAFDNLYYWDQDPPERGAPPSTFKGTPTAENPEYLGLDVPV
Protocol: The assay is performed similarly to the kinase assay for […] as described above, except ErbB2 kinase protein is used instead of EGFR kinase protein.

[4] = target: EGFR kinase (Homo sapiens (Human), UniProt P00533); assay: Kinase assay for EGFR (TR-FRET, LanthaScreen); format: biochemical; conditions: read-out: Kinase inhibition IC50 (nM) EGFR
Sequence of EGFR kinase (P00533 668-1210): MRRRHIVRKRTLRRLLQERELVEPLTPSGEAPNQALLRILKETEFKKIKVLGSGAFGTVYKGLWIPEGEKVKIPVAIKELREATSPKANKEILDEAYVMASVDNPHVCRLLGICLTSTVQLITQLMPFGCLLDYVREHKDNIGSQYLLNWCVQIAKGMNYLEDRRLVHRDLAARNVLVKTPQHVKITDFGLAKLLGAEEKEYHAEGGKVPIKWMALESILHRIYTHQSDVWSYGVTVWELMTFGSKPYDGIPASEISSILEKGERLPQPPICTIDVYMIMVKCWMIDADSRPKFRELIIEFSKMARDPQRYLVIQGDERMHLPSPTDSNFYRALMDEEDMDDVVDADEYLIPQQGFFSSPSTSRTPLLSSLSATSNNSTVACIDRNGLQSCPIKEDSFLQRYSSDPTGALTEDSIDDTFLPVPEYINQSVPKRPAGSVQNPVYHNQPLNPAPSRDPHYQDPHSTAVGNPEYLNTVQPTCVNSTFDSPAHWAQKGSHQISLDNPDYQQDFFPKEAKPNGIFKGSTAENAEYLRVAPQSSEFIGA
Protocol: The extent to which the compounds of the present invention modulate EGFR kinase activity can be determined using time-resolved Fret (TR-FRET) assay (LanthaScreen® kinase activity assay, from InVitrogen). The assay employs EGFR kinase (PV3872, Invitrogen), Tb-Py20 antibody (PV3552, InVitrogen) and fluorescein-poly GT (PV3610, InVitrogen).
The assay is performed in a Black 384-well plate (available from Corning). EGFR kinase (is diluted in TR-FRET Dilution Buffer (PV3189, InVitrogen) at concentration of 0.4 ug/ml as stock solution, and then 2-fold serial diluted. Addition of 1 mM ATP initiated the reaction, and the reaction is incubated for […] at room temperature. 10 μL of the Tb-antibody (from InVitrogen)+EDTA (from InVitrogen) solution prepared was added to each well of the assay plate and mix briefly, and incubated for 30 min. The signal is monitored by using M5 microplate reader (Ex=332 nm, Em=488 nm and 518 nm). Each compound is tested in duplicate wells. EGFR without compound is used as control. Staurosporine (available from Sigma) is used as positive control compound. Inhibition was calculated as percentage of the EGFR activity (without compound).

[5] = Rat pharmacokinetics studies (plasma); format: in vivo, Sprague Dawley rats; conditions: rat
Protocol: Sample preparation: The test article each was dissolved in 10% DMSO and 90% of (40% HP-β-CD in deionized water) to yield concentration at 2 mg/mL for intravenous and oral administration.
Method development and plasma samples analysis were performed by Analytical Sciences Division of the Testing Facility by means of LC-MS/MS. The analytical results were confirmed using quality control samples for intra-assay variation (within day variation). The accuracy of >66% of the quality control samples was between 80-120% of the known value(s).
Each group consisted of 3 male Sprague Dawley rats (7-8 week old, 200-300 g body weight). The test articles were administered by a single bolus intravenous injection via the lateral tail vein or via oral gavage.
Blood samples (approximately 300 μl) were collected via retro-orbital puncture after anaesthesia using mixed gas (CO2:O2=7:3) into tubes containing EDTA-K3 anticoagulant at appropriate time points. 10 time points (Groups 1-2): Pre-dose and post-dose at 5 min, 15 min, 30 min, 1 h, 2 h, 4 h, 6 h, 8 h and 24 h.
Analysis: The PK blood samples were centrifuged at approximately 8000 rpm for (3 minutes at 2-8° C. and the resulting plasma were separated and stored frozen at approximately −80° C. (following separation, the plasma may be initially placed on ice prior to being stored in the −80° C. freezer). All the plasma samples were labeled with detailed information such as study number, animal number, matrix, time points of collection and date of collection.
Standard set of parameters including Area Under the Curve (AUC(0-t) and AUC(0-∞)), elimination half-live (T1/2), maximum plasma concentration (Cmax), time to reach maximum plasma concentration (Tmax), clearance (CL), and volume of distribution (Vz) will be calculated using noncompartmental analysis modules in FDA certified pharmacokinetic program WinNonlin Professional v5.2 (Pharsight, USA) by the Study Director. Furthermore, the Bioavailability will be estimated using the following formula:
• AUC(0-t) Area under the curve from the time of dosing to the last measurable concentration • AUC(0-∞) Area under the curve from the time of dosing extrapolated to infinity, based on the last observed concentration • CL Total body clearance, CL=Dose/AUC • Cmax Maximum observed concentration, occurring at Tmax • F Bioavailability • MRT(0-∞) Mean residence time from the time of dosing to infinity • Tmax Time of maximum observed concentration • T1/2 Terminal half-life=In(2)/λz • Vz Volume of distribution based on the terminal phase

[6] = Rat brain concentration; format: in vivo, Sprague Dawley rats; conditions: predetermined time points
Protocol: Brain concentration: Three rats are for brain collection (2h) only. Three rats are for brain collection (4 h) only. The rest 3 rats are for plasma (9 time points) and brain collection (24h).
Brain Collection and Tissue Processing: Post blood collection, the brain was first perfused intracardially with ˜150 mL of ice-cold, 0.1 M Phosphate Buffered Saline (PBS) at pH7.4. Then, the dura was removed before weighing the brain. The brain was then dissected into smaller pieces, rinsed twice with ˜10 mL PBS, and then flash frozen on dry ice, and stored at −80° C. before analysis.
Before tissue processing, rat brains were thawed. For the preparation of analytical standards, purchased frozen rat brains (from Pelfreez) were similarly thawed, dissected, rinsed with PBS, and 100 μL of Compound A stock solution (at 500 ng/mL and 1, 2 5, 10, and 50 μg/mL in acetonitrile) was spiked directly into the tissue. Both Compound A dosed and spiked brains then underwent the same processing procedures described below.
Briefly, 2 mL of water was added to each brain before homogenization. Homogenize the brain in 2 to 3 sessions, each approximately 15 sec. The mechanical probe of the homogenizer was cleansed in water, 70% ethanol, and ethyl acetate after each sample. The resulting brain homogenates were then extracted with ethyl acetate three times (14 mL total), and centrifuged to separate the aqueous and organic phases after each extraction. Per brain, pooled organic phase were evaporated under a stream of nitrogen at 40° C. and the residues were reconstituted with 4 mL of mobile phase B. Compound A spiked brain samples in the 4 mL solutions had final concentrations of 12.5, 25, 50, 125, 250, 1250 ng/mL. The reconstituted samples were incubated for ˜15 minutes at 60° C. and, vortexed for 10 minutes to fully dissolve the analytes. The samples were centrifuged, and then further diluted with Mobile phase B (shown below) before LC/MS/MS analysis. Dilute 20 μL of reconstituted samples with 1.5 mL mobile phase B. Transfer and inject supernatant to […] system for analysis.

Compound: CS(=O)(=O)CCNCc1ccc(-c2ccc3ncnc(Nc4ccc(OCc5cccc(F)c5)c(Cl)c4)c3c2)o1 [Lapatinib, reference compound]
- tumor inhibition rate ([1]; day 28 (last day of the study)): 92.9%
- RTV T/C ([1]; day-7 after treatment): 31%
- tumor growth inhibition rate ([1]; day-7 after treatment): 69%

Compound: CN(C)C/C=C/C(=O)Nc1cc2c(Nc3ccc(F)c(Cl)c3)ncnc2cc1C#C[C@@H]1CCCO1 [Example 2, (E)-N-(4-(3-chloro-4-fluorophenylamino)-7-(2-((S)-tetrahydrofuran-2-yl)ethynyl)quinazolin-6-yl)-4-(dimethylamino)but-2-enamide]
- IC50 [2]: < 100 nM
- IC50 [3]: < 100 nM
- IC50 [4]: < 100 nM

Compound: CN(C)C/C=C/C(=O)Nc1cc2c(Nc3ccc(F)c(Cl)c3)ncnc2cc1C#CC1CCOC1 (stereo not shown) [Example 1, (E)-N-(4-(3-chloro-4-fluorophenylamino)-7-(2-(tetrahydrofuran-3-yl)ethynyl)quinazolin-6-yl)-4-(dimethylamino)but-2-enamide]
- IC50 [2]: < 100 nM
- IC50 [3]: < 100 nM
- IC50 [4]: < 100 nM

Compound: CN(C)C/C=C/C(=O)Nc1cc2c(Nc3ccc(F)c(Cl)c3)ncnc2cc1O[C@H]1CCOC1 [afatinib, reference compound]
- rat PK (qualitative) [5]: poor PK
- Kp ([6]; Sprague Dawley, brain/plasma, read-out: Brain/plasma concentration ratio): < 0.05
- brain concentration [6]: < 1 ng/g
- brain concentration (detectability) [6]: no detectable brain concentration; also recorded: below detection limit

Compound: CN(C)C/C=C/C(=O)Nc1cc2c(Nc3ccc(F)c(Cl)c3)ncnc2cc1C#C[C@@]12COC[C@@H]1C2 [Example 7, (E)-N-(4-(3-chloro-4-fluorophenylamino)-7-(2-((1S,5R)-3-oxa-bicyclo[3.1.0]hexan-1-yl)ethynyl)quinazolin-6-yl)-4-(dimethylamino)but-2-enamide]
- IC50 [2]: < 100 nM
- IC50 [3]: < 100 nM
- IC50 [4]: < 100 nM

Compound: CN(C)C/C=C/C(=O)Nc1cc2c(Nc3ccc(F)c(Cl)c3)ncnc2cc1C#C[C@H]1CCCO1 [Example 3, (E)-N-(4-(3-chloro-4-fluorophenylamino)-7-(2-((R)-tetrahydrofuran-2-yl)ethynyl)quinazolin-6-yl)-4-(dimethylamino)but-2-enamide]
- IC50 [2]: < 100 nM
- IC50 [3]: < 100 nM
- IC50 [4]: < 100 nM

Compound: CN(C)C/C=C/C(=O)Nc1cc2c(Nc3ccc(F)c(Cl)c3)ncnc2cc1C#CC12COCC1C2 (stereo not shown) [Example 5, (E)-N-(4-(3-chloro-4-fluorophenylamino)-7-(2-(3-oxa-bicyclo[3.1.0]hexan-1-yl)ethynyl)quinazolin-6-yl)-4-(dimethylamino)but-2-enamide]
- IC50 [2]: < 100 nM
- IC50 [3]: < 100 nM
- IC50 [4]: < 100 nM

Compound: CN(C)C/C=C/C(=O)Nc1cc2c(Nc3ccc(F)c(Cl)c3)ncnc2cc1C#C[C@]12COC[C@H]1C2 [Example 6, (E)-N-(4-(3-chloro-4-fluorophenylamino)-7-(2-((1R,5S)-3-oxa-bicyclo[3.1.0]hexan-1-yl)ethynyl)quinazolin-6-yl)-4-(dimethylamino)but-2-enamide]
- IC50 [2]: < 100 nM
- IC50 [3]: < 100 nM
- IC50 [4]: < 100 nM
